For 28 molecules, EC50 results are on record in patent US10195189B2, “2-phenethenyltetrahydro isoquinolines useful as anti-HIV compounds” (priority 2014, dated 2019).

The test system of this assay is HIV-1 NL4-3 viral clone expressing Renilla luciferase. The assay is described as follows: microbe, parasite or virus in culture. The assay is classed as cell-based. As to conditions: Human immunodeficiency virus 1, NL43, MT2, 96 h. How it is done:
Protocol for MT-2 Spread Assay
The present assay was used to screen candidate antiviral compounds by quantification of virus spread and production over several rounds of infection in vitro. MT-2, a HIV-1 permissive human T-cell line, was seeded in microtiter plates and was simultaneously treated with serially diluted compound and inoculated with a HIV-1 NL4-3 viral clone engineered to express Renilla luciferase in place of Net Following treatment, the culture was incubated for 96 hours. After the incubation, media was collected and used to estimate relative infectivity on the indicator cell line, TZM-bl. Additionally, viral spread was quantified by measuring luciferase activity via a commercially available luciferase substrate. In parallel, MT-2 cells were seeded and inoculated with mock virus in the presence of serially diluted compound. Compound toxicity was quantified 96 hours after treatment with AlamarBlue.
MT-2 (NIH Aids reagent program 237) cells were grown and maintained in an incubator at 37° C. with 5% CO2 using a basal medium of RPMI-1640 supplemented with 10% FBS. Cells were seeded in 100 μl at 2×10^4 cells/well in white walled 96-well microtiter plates. Candidate compounds were 3-fold serially diluted in the appropriate solvent. Solvent without compound was used as a no drug reference. Cells were inoculated at a multiplicity of 0.027 with an HIV-1 NL4-3 virus stock engineered to express Renilla luciferase in place of Net Diluted virus stock was first added to serially diluted compound. Compound and virus were delivered to cells in an equal volume (100 μl) and treated cultures were returned to the incubator for 96 hours. In parallel, plates for cytotoxicity estimates were prepared in the same way except cells were plated in clear walled 96-well microtiter plates and were mock infected.
At 96 hours post infection, 100 μl virus containing culture supernatant was collected from the treated and infected cultures and serially diluted in DMEM supplemented with 10% FBS, 1% sodium pyruvate, and 20 μg/ml DEAE dextran. One day prior, TZM-bl (ATCC PTA-5659) were cultured in basal medium of DMEM supplemented with 10% FBS and 1% sodium pyruvate and seeded at 7.5×10^3 cells/well in black walled 96-well microtiter plates. Diluted virus containing culture supernatant was transferred to TZM-bl cultures and incubated for 48 hours at 37° C. with 5% CO2. Infected TZM-bl cultures were fixed for 5 minutes with a 1% formaldehyde/0.2% gluteraldehyde/PBS solution then washed three times with PBS. Fixed cultures were incubated at 37° C. for 25 minutes with a 200 μg/ml MUG (4-Methylumbelliferyl β-D-[…])/DMEM solution. The reaction was stopped with an equal volume of 1M sodium carbonate and read at 360, 449 nm on fluorescence plate reader (Biotek).
At 96 hours post infection, 100 μl of culture supernatant was removed from the treated and infected cultures and EnduRen live cell substrate (Promega) was added at a final concentration 1.3 μg/ml. Cells were incubated for 1.5 hours at 37° C. with 5% CO2 then read on a luminescence plate reader (Biotek).
For all assays, data was imported into Accelrys Assay Explorer 3.3. In Assay Explorer, % inhibition (antiviral or cytotoxicity) was calculated using the solvent control as a reference by the following equation: 1−(SignalCompound/SignalReference). The % Inhibition and compound concentration data was fitted using the following 4-parameter logistic model (Assay Explorer model 42):
[formula] where X is compound concentration, Y is % inhibition, D is the maximum % Inhibition (constrained to 100%), C is IC50 value or inflection point, B is the hill slope, and A is the minimum % inhibition (constrained to 0%). The IC50 value is reported as the EC50 or CC50 depending on the assay endpoint. EC50 represents the effective concentration at which virus replication is inhibited by 50 percent. CC50 represents the concentration that results in the death of 50 percent of the host cells. […]
Usually EC50 stands for the concentration at which the effect is half-maximal. A lower EC50 goes with an effect from little substance. `COc1cc2c(cc1OCc1ccccc1)CCNC2/C=C/c1ccc(-n2ccnc2C)cc1` (stereo not shown) [DM, (E)-6-(benzyloxy)-7-methoxy-1-(4-(2-methyl-1H-imidazol-1-yl)styryl)-1,2,3,4-tetrahydroisoquinoline]: the concentration for a half-maximal effect (EC50) amounted to 1520 nM.
The value for `COc1cc(C)c(/C=C/C2NCCc3cc(OCc4ccccc4)c(OC)cc32)cc1OCCCCN=[N+]=[N-]` (stereo not shown) [CD, 1-[(E)-2-[5-(4-azidobutoxy)-4-methoxy-2-methyl-phenyl]vinyl]-6-benzyloxy-7-methoxy-1,2,3,4-tetrahydroisoquinoline] was 88 nM; that for `COc1cc2c(cc1OCc1ccccc1)CCNC2/C=C/c1cccc(OCc2ccccc2)c1` (stereo not shown) [BK, 6-Benzyloxy-1-[(E)-2-(3-benzyloxyphenyl)vinyl]-7-methoxy-1,2,3,4-tetrahydroisoquinoline] was 260 nM; that for `COc1ccc2cc(/C=C/C3NCCc4cc(OCc5ccccc5)c(OC)cc43)ccc2c1` (stereo not shown) [DI, (E)-6-(benzyloxy)-7-methoxy-1-(2-(6-methoxynaphthalen-2-yl)vinyl)-1,2,3,4-tetrahydroisoquinoline] was 628 nM.
`COc1ccc(/C=C/C2NCCc3cc(OCc4ccccc4)c(OC)cc32)cc1CN1CCCCC1` (stereo not shown) [EM, 6-Benzyloxy-7-methoxy-1-[(E)-2-[4-methoxy-3-(1-piperidylmethyl)phenyl]vinyl]-1,2,3,4-tetrahydroisoquinoline] registered an EC50 of 320 nM.
As for `COc1ccc(/C=C/C2NCCc3cc(OCc4ccccc4)c(OC)cc32)cn1` (stereo not shown) [AX, 6-Benzyloxy-7-methoxy-1-[(E)-2-(6-methoxy-3-pyridyl)vinyl]-1,2,3,4-tetrahydroisoquinoline], the EC50 amounted to 3280 nM.
The value for `COc1cc2c(cc1OCc1ccccc1)CCNC2/C=C/c1cc2c(cc1C)OCC2` (stereo not shown) [CG, 6-Benzyloxy-7-methoxy-1-[(E)-2-(6-methyl-2,3-dihydrobenzofuran-5-yl)vinyl]-1,2,3,4-tetrahydroisoquinoline] was 140 nM.
Then `COc1cc2c(cc1OCc1ccccc1)CCNC2/C=C/c1ccc(S(C)(=O)=O)cc1` (stereo not shown) [BZ, 6-Benzyloxy-7-methoxy-1-[(E)-2-(4-methylsulfonylphenyl)vinyl]-1,2,3,4-tetrahydroisoquinoline], with 1000 nM; and `COc1cc2c(cc1OCc1ccccc1)CCNC2/C=C/c1ccccc1N1CCCCC1` (stereo not shown) [DX, 6-(Benzyloxy)-7-methoxy-1-[(E)-2-[2-(piperidin-1-yl)phenyl]ethenyl]-1,2,3,4-tetrahydroisoquinoline], with 4200 nM.
Then `COc1ccc(/C=C/C2NCCc3cc(OCc4ccccc4)c(OC)cc32)cc1OC` (stereo not shown) [BQ, 6-Benzyloxy-1-[(E)-2-(3,4-dimethoxyphenyl)vinyl]-7-methoxy-1,2,3,4-tetrahydroisoquinoline], with 198 nM; and `COc1cc2c(cc1OCc1ccccc1)CCNC2/C=C/c1cscn1` (stereo not shown) [DR, 6-(Benzyloxy)-7-methoxy-1-[(E)-2-(1,3-thiazol-4-yl)ethenyl]-1,2,3,4-tetrahydroisoquinolin], with 4820 nM; and `COc1ccc(/C=C/C2c3cc(OC)c(OCc4ccccc4)cc3CCN2C(=O)c2cnccn2)cc1OCc1ccccc1` (stereo not shown) [Example B, [6-Benzyloxy-1-[(E)-2-(3-benzyloxy-4-methoxy-phenyl)vinyl]-7-methoxy-3,4-dihydro-1H-isoquinolin-2-yl]-pyrazin-2-yl-methanone], with 10000 nM.
As to `COc1cc2c(cc1OCc1ccccc1)CCNC2/C=C/c1ccc(-c2cccnc2)cc1` (stereo not shown) [DJ], a half-maximal effect (EC50) was put at 393 nM.
On to `COc1cc2c(cc1OCc1ccccc1)CCNC2/C=C/c1cc2c(cc1C)OCO2` (stereo not shown) [BB, 6-Benzyloxy-7-methoxy-1-[(E)-2-(6-methyl-1,3-benzodioxol-5-yl)vinyl]-1,2,3,4-tetrahydroisoquinoline], for which the EC50 came to 54.4 nM.
On to `COc1cc(C)c(/C=C/C2=NCCc3cc(OCc4ccccc4)c(OC)cc32)cc1OCc1ccccc1` [Example AE, 6-benzyloxy-1-[(E)-2-(5-benzyloxy-4-methoxy-2-methyl-phenyl)vinyl]-7-methoxy-3,4-dihydroisoquinoline], for which the EC50 was 440 nM.
Then `CCOC(=O)c1coc(-c2cccc(/C=C/C3NCCc4cc(OCc5ccccc5)c(OC)cc43)c2)n1` (stereo not shown) [EF, Ethyl 2-[3-[(E)-2-(6-benzyloxy-7-methoxy-1,2,3,4-tetrahydroisoquinolin-1-yl)vinyl]phenyl]oxazole-4-carboxylate], with 1000 nM.
The value for `COc1ccc(/C=C/C2c3cc(OC)c(OCc4ccccc4)cc3CCN2C)cc1OCc1ccccc1` (stereo not shown) [Example V, 6-benzyloxy-1-[(E)-2-(3-benzyloxy-4-methoxy-phenyl)vinyl]-7-methoxy-2-methyl-3,4-dihydro-1H-isoquinoline] was 780 nM; that for `COc1cc2c(cc1OCc1ccccc1)CCNC2/C=C/c1cn(C(=O)OC(C)(C)C)c2ccccc12` (stereo not shown) [CI, tert-Butyl 3-[(E)-2-(6-benzyloxy-7-methoxy-1,2,3,4-tetrahydroisoquinolin-1-yl)vinyl]indole-1-carboxylate] was 230 nM; that for `COc1cc2c(cc1OCc1ccccc1)CCNC2/C=C/c1scnc1C` (stereo not shown) [DY, 5-[(E)-2-(6-Benzyloxy-7-methoxy-1,2,3,4-tetrahydroisoquinolin-1-yl)vinyl]-4-methyl-thiazole] was 5510 nM.
Then `COc1cc2c(cc1OCc1ccccc1)CCNC2/C=C/c1ccccc1C(F)(F)F` (stereo not shown) [DA, (E)-6-(benzyloxy)-7-methoxy-1-(2-(trifluoromethyl)styryl)-1,2,3,4-tetrahydroisoquinoline], with 2340 nM; and `COc1cc2c(cc1OCc1ccccc1)CCNC2/C=C/c1cc(C(C)C)c(OC)cc1C` (stereo not shown) [BW, 6-Benzyloxy-1-[(E)-2-(5-isopropyl-4-methoxy-2-methyl-phenyl)vinyl]-7-methoxy-1,2,3,4-tetrahydroisoquinoline], with 840 nM; and `COc1cc(F)c(/C=C/C2NCCc3cc(OCc4ccccc4)c(OC)cc32)c(F)c1` (stereo not shown) [BU, 6-Benzyloxy-1-[(E)-2-(2,6-difluoro-4-methoxy-phenyl)vinyl]-7-methoxy-1,2,3,4-tetrahydroisoquinoline], with 1020 nM.
Take `COc1cc(OC)c(OC)cc1/C=C/C1NCCc2cc(OCc3ccccc3)c(OC)cc21` (stereo not shown) [AQ, 6-Benzyloxy-7-methoxy-1-[(E)-2-(2,4,5-trimethoxyphenyl)vinyl]-1,2,3,4-tetrahydroisoquinoline]: the EC50 worked out at 15.1 nM.
The value for `COc1cc2c(cc1OCc1ccccc1)CCNC2/C=C/c1ccc(N2CCCCC2)cc1` (stereo not shown) [EA, 6-Benzyloxy-7-methoxy-1-[(E)-2-[4-(1-piperidyl)phenyl]vinyl]-1,2,3,4-tetrahydroisoquinoline] was 2100 nM; that for `COc1cc2c(cc1OCc1ccccc1)CCNC2/C=C/c1ccc2c(c1)OC(F)(F)O2` (stereo not shown) [DF, (E)-6-(benzyloxy)-1-(2-(2,2-difluorobenzo[d][1,3]dioxol-5-yl)vinyl)-7-methoxy-1,2,3,4-tetrahydroisoquinoline] was 5440 nM.
The value for `COc1cc2c(cc1OCc1ccccc1)CCNC2/C=C/c1ccccc1` (stereo not shown) [BI, 6-Benzyloxy-7-methoxy-1-[(E)-styryl]-1,2,3,4-tetrahydroisoquinoline] was 2200 nM.
Then `COc1cc2c(cc1OCc1ccccc1)CCNC2/C=C/c1ccc(N(C)C)cc1C` (stereo not shown) [BG, 4-[(E)-2-(6-benzyloxy-7-methoxy-1,2,3,4-tetrahydroisoquinolin-1-yl)vinyl]-N,N,3-trimethyl-aniline], with 1650 nM; and `COc1cc2c(cc1OCc1ccccc1)CCNC2/C=C/c1ccc(-n2ccnc2)cc1` (stereo not shown) [DK, (E)-1-(4-(1H-imidazol-1-yl)styryl)-6-(benzyloxy)-7-methoxy-1,2,3,4-tetrahydroisoquinoline], with 107 nM.
